Experimental data: the CheMixHub viscosity set

Assay: xn = mol fraction of the nth substance listed

CC(C)[C@@H]1CC[C@@H](C)C[C@H]1O + CCCO
Conditions | viscosity [mPa·s]
298.15 K, 101.33 kPa, x1 = 0.5 | 28.39

CCCCCCCCCCO + CCCO
viscosity [mPa·s], 101 kPa
Conditions | 298.15 K | 308.15 K | 318.15 K
x2 = 0.05 | 10.52 | 7.206 | 5.14
x2 = 0.1 | 10.05 | 6.914 | 4.927
x2 = 0.15 | 9.562 | 6.633 | 4.716
x2 = 0.2 | 9.064 | 6.36 | 4.508
x2 = 0.25 | 8.557 | 6.093 | 4.306
x2 = 0.3 | 8.046 | 5.831 | 4.109
x2 = 0.35 | 7.534 | 5.572 | 3.921
x2 = 0.4 | 7.023 | 5.314 | 3.741
x2 = 0.45 | 6.517 | 5.058 | 3.572
x2 = 0.5 | 6.018 | 4.802 | 3.416
x2 = 0.55 | 5.529 | 4.547 | 3.275
x2 = 0.6 | 5.052 | 4.293 | 3.15
x2 = 0.65 | 4.589 | 4.04 | 3.044
x2 = 0.7 | 4.142 | 3.79 | 2.96
x2 = 0.75 | 3.712 | 3.543 | 2.9
x2 = 0.8 | 3.303 | 3.301 | 2.866
x2 = 0.85 | 2.915 | 3.065 | 2.862
x2 = 0.9 | 2.549 | 2.839 | 2.89
x2 = 0.95 | 2.207 | 2.624 | 2.953

NC(N)=O + CCCO
viscosity [mPa·s], 101 kPa
Conditions | 298.15 K | 303.15 K | 308.15 K | 313.15 K | 318.15 K
x1 = 0.025 | 2.16 | 1.896 | 1.691 | 1.502 | 1.339
x1 = 0.0385 | 2.24 | 2.003 | 1.768 | 1.568 | 1.401

CCCCCC(=O)[O-].[NH3+]CCO + CCO
viscosity [mPa·s], 101 kPa
Conditions | x1 = 0.0135 | x2 = 0.794 | x2 = 0.8544 | x2 = 0.9 | x2 = 0.9391 | x2 = 0.9563 | x2 = 0.9719
293.15 K | 1.548 | 13.46 | 7.158 | 4.35 | 2.76 | 2.28 | 1.86
298.15 K | 1.428 | 11.38 | 6.24 | 3.87 | 2.472 | 2.046 | 1.74
303.15 K | 1.29 | 9.792 | 5.43 | 3.39 | 2.22 | 1.848 | 1.512

CCCCCCCCCCO + CCO
viscosity [mPa·s], 101 kPa
Conditions | 298.15 K | 308.15 K | 318.15 K
x2 = 0.05 | 10.42 | 7.3 | 4.847
x2 = 0.1 | 9.841 | 7.003 | 4.436
x2 = 0.15 | 9.249 | 6.644 | 4.102
x2 = 0.2 | 8.648 | 6.24 | 3.83
x2 = 0.25 | 8.044 | 5.809 | 3.604
x2 = 0.3 | 7.442 | 5.364 | 3.409
x2 = 0.35 | 6.845 | 4.919 | 3.236
x2 = 0.4 | 6.259 | 4.484 | 3.073
x2 = 0.45 | 5.687 | 4.065 | 2.912
x2 = 0.5 | 5.133 | 3.671 | 2.747
x2 = 0.55 | 4.6 | 3.304 | 2.575
x2 = 0.6 | 4.09 | 2.967 | 2.391
x2 = 0.65 | 3.606 | 2.659 | 2.195
x2 = 0.7 | 3.15 | 2.378 | 1.989
x2 = 0.75 | 2.723 | 2.119 | 1.775
x2 = 0.8 | 2.326 | 1.876 | 1.558
x2 = 0.85 | 1.961 | 1.641 | 1.344
x2 = 0.9 | 1.627 | 1.402 | 1.141
x2 = 0.95 | 1.325 | 1.146 | 0.9601

NC(N)=O + CCO
viscosity [mPa·s], 101 kPa
Conditions | 293.15 K | 298.15 K | 303.15 K | 308.15 K | 313.15 K | 318.15 K | 323.15 K
x1 = 0.02956 | 1.328 | 1.204 | 1.095 | 0.999 | 0.914 | 0.839 | 0.772
x1 = 0.03764 | 1.386 | 1.251 | 1.134 | 1.031 | 0.94 | 0.859 | 0.788
x1 = 0.04782 | 1.476 | 1.329 | 1.202 | 1.09 | 0.991 | 0.904 | 0.828
